Experimental data: publication PMC11091072, “Targeting bacterial nickel transport with aspergillomarasmine A suppresses virulence-associated Ni-dependent enzymes” (Nature Communications, 2024)
Values joined by “and” are separate entries in the source; they are usually repeats but may differ in a detail not shown here. Identical values can stand only once. Like-named read-outs stand apart in the source and are kept apart here.

Legend:
[1] = test system: cellular Ni and Zn content of K. pneumoniae; assay: Cellular metal analysis by ICP-MS (60Ni, 66Zn); assay type: cell-based, Klebsiella pneumoniae
Experimental: The cellular Zn^2+ and Ni^2+ content of K. pneumoniae was carried out according to the method described by Maunders et al.[66] with some modifications. An overnight culture of K. pneumoniae was diluted 1/200 in LB medium (5 mL) and was either untreated or treated with 0.2 mM AMA or Zn-AMA. The cells were grown for 16 h at 37 °C, harvested by centrifugation, and washed twice with PBS containing 5 mM EDTA and twice with ultra-pure water. The cell pellet was subsequently digested in 0.25 mL 65% HNO3 at 80 °C for 30 minutes in borosilicate glass tubes using a water bath. The samples were diluted to 2% HNO3 and filtered through a 0.45 μm syringe filter. ^60Ni and ^66Zn were quantified using a Thermo iCAP Q ICP-MS.

[2] = test system: struvite crystallization in K. pneumoniae cultures; assay: Struvite crystal nucleation in artificial urine cultures; assay type: cell-based, Klebsiella pneumoniae
Excerpt: A The metal complexed structure, selectivity, and affinity of AMA. The constituents of AMA are labeled L-aspartate (L-Asp) and 2,3-diaminopropionic acid (APA). B Dose-response urease inhibition assays in K. pneumoniae. […] C Dose-response effect of AMA and Zn-AMA on the nucleation of struvite crystals in K. pneumoniae cultures grown in artificial urine. Crystals were examined microscopically in 96-well plates and visually quantified. […] The data represent the representative mean of two replicates. D Quantification of planktonic growth and crystal violet-stained biofilms of K. pneumoniae grown in artificial urine and varying concentrations of Zn-AMA. […] Data represent mean ± s.d. of four technical replicates. E ICP-MS quantification of cellular ^60Ni and ^66Zn content in K. pneumoniae untreated or treated with 200 μM AMA, or Zn-AMA. […] Whole-cell hydrogenase assays were performed by adding benzyl viologen (BV) at a final concentration of 1 mg/mL and monitoring its reduction at an absorbance of 630 nm. Data represent the mean of two technical replicates.
FIG S5 Microscopic detection of struvite crystals grown in artificial urine cultures of K. pneumoniae. Top row, the concentration-dependent effect of AMA on struvite formation. Bottom row, the concentration-dependent effect of Zn-AMA on struvite formation.
Bacteria were grown in 96 well flat-bottom plates for 24h at 37 °C. Brightfield micrographs were taken with a BioTek Cytation cell imaging reader at 4x magnification. Four images were taken per well and were digitally stitched to generate whole-well images. […]

[3] = test system: S. aureus; assay type: cell-based, Staphylococcus aureus; conditions: 200 μM, 24 h
[4] = test system: S. aureus urease activity (whole cell); assay type: cell-based, Staphylococcus aureus; conditions: artificial urine, 24 h; for Staphylococcus aureus urease-dependent pH change (pH): 37 °C
[5] = test system: K. pneumoniae urease activity (whole cell); assay: microbe, parasite or virus in culture; assay type: cell-based, Klebsiella pneumoniae ATCC 33495; conditions: artificial urine, 24 h; for K. pneumoniae urease-dependent pH change (pH): 37 °C
[6] = target: T1, urease (Klebsiella pneumoniae subsp. pneumoniae, UniProt A6TE40+A6TE41+A6TE42); assay: Urease activity in cell-free extracts (NH3 release, indophenol-hypochlorite); assay type: biochemical
T1 construct: endogenous in cells; host or cells: Klebsiella pneumoniae (ATCC 33495), sonicated and cleared lysate
Experimental: The cells were subsequently lysed by sonication, and cell debris was removed with centrifugation (20,000 × g, 10 min). […] Liberated NH3 was quantified using the indophenol-hypocholorite reaction as previously described. The total amount of protein was quantified by Bradford assay using bovine serum albumin as standard. Each assay was performed in duplicate wells.
FIG S7 Evaluation of Zn-AMA as a direct inhibitor of urease. A) Checkerboard analysis of Zn-AMA and AHA on urease activity of K. […]
Dose- […]
response curves of fluorofamide, Zn-AMA, and AMA inhibiting the urease-catalyzed release of NH3 quantified with indophenol hypochlorite. The rates of NH3 production were measured over 20 min and were normalized to total protein concentration. Experiments were performed in duplicate. Individual replicates are shown as colored circles.

[7] = test system: HEK293 cells; assay: HEK293 cytotoxicity assay (Cell Titer Glo 2.0)
[8] = K. pneumoniae treated with 200 μM

T1 sequence (A6TE41 whole entry): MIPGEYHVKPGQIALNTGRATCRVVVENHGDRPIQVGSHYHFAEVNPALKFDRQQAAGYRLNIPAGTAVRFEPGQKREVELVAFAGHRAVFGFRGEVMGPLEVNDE
T1 sequence (A6TE40 whole entry): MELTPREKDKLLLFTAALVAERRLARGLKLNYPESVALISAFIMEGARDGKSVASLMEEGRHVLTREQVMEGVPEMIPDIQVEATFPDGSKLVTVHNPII
T1 sequence (A6TE42 whole entry): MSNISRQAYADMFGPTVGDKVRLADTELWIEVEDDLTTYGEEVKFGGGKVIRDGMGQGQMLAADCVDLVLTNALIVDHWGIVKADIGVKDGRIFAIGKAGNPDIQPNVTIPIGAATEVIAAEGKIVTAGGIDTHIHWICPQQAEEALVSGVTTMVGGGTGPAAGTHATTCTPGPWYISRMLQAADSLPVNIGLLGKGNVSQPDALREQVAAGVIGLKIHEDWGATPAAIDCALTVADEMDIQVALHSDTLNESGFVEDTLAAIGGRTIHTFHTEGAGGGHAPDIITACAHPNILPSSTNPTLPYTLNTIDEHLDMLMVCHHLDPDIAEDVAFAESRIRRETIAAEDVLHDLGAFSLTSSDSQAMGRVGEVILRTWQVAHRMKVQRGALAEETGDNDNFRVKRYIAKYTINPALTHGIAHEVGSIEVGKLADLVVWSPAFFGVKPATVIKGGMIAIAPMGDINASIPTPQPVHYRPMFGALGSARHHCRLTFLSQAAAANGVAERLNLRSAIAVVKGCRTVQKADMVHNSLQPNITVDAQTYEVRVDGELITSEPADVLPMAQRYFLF

N[C@@H](CN[C@@H](CN[C@@H](CC(=O)O)C(=O)O)C(=O)O)C(=O)O [AMA, aspergillomarasmine A]
effect on intracellular Ni^2+ levels ([1]; 200 μM, ICP-MS): reduced intracellular Ni^2+ levels | effect on intracellular Zn^2+ levels ([1]; 200 μM, ICP-MS): without affecting Zn^2+ levels | ICP-MS cellular Ni [1, 8]: 2.92 µM and 2.63 µM | ICP-MS cellular Zn [1, 8]: 0.75 µM and 0.88 µM | Struvite crystal quantification (count) ([2]; 3.12 μM): 59 and 42 | Struvite crystal quantification (count) ([2]; 6.25 μM): 99 and 82 | Struvite crystal quantification (count) ([2]; 12 μM): 74 and 95 | Struvite crystal quantification (count) ([2]; 25 μM): 68 and 103 | Struvite crystal quantification (count) ([2]; 50 μM): 72 and 91 | Struvite crystal quantification (count) ([2]; 100 μM): 70 and 83 | Struvite crystal quantification (count) ([2]; 200 μM): 36 and 49 | bacterial viability (spot dilutions) [3]: not lethal to bacteria | Staphylococcus aureus urease-dependent pH change (pH) ([4]; 0.19 μM): 6.95 and 7.25 | Staphylococcus aureus urease-dependent pH change (pH) ([4]; 0.39 μM): 6.96 and 7.10 | Staphylococcus aureus urease-dependent pH change (pH) ([4]; 0.78 μM): 6.77 and 6.94 | Staphylococcus aureus urease-dependent pH change (pH) ([4]; 1.56 μM): 6.69 and 6.68 | Staphylococcus aureus urease-dependent pH change (pH) ([4]; 3.12 μM): 6.42 and 6.51 | Staphylococcus aureus urease-dependent pH change (pH) ([4]; 6.25 μM): 6.40 and 6.45 | Staphylococcus aureus urease-dependent pH change (pH) ([4]; 12.5 μM): 6.33 and 6.40 | Staphylococcus aureus urease-dependent pH change (pH) ([4]; 25 μM): 6.33 and 6.38 | Staphylococcus aureus urease-dependent pH change (pH) ([4]; 50 μM): 6.38 | Staphylococcus aureus urease-dependent pH change (pH) ([4]; 100 μM): 6.31 and 6.37 | Staphylococcus aureus urease-dependent pH change (pH) ([4]; 200 μM): 6.35 and 6.38 | effect on urease activity ([4]; S. aureus): inhibited urease activity similarly | K. pneumoniae urease-dependent pH change (pH) ([5]; 0.19 μM): 8.15 and 8.19 | K. pneumoniae urease-dependent pH change (pH) ([5]; 0.39 μM): 8.16 and 8.12 | K. pneumoniae urease-dependent pH change (pH) ([5]; 0.78 μM): 8.08 and 8.03 | K. pneumoniae urease-dependent pH change (pH) ([5]; 1.56 μM): 7.97 and 7.75 | K. pneumoniae urease-dependent pH change (pH) ([5]; 3.12 μM): 7.86 and 7.57 | K. pneumoniae urease-dependent pH change (pH) ([5]; 6.25 μM): 7.81 and 7.46 | K. pneumoniae urease-dependent pH change (pH) ([5]; 12.5 μM): 7.78 and 7.33 | K. pneumoniae urease-dependent pH change (pH) ([5]; 25 μM): 7.75 and 7.40 | K. pneumoniae urease-dependent pH change (pH) ([5]; 50 μM): 7.87 and 7.54 | K. pneumoniae urease-dependent pH change (pH) ([5]; 100 μM): 8.02 and 7.77 | K. pneumoniae urease-dependent pH change (pH) ([5]; 200 μM): 8.03 and 8.04 | effect on urease activity ([5]; K. pneumoniae): did not significantly affect urease activity | Specific activity (cell-free indophenol urease assay) ([6]; AMA 0.007813 mM): 42.56 nmol/min/mg and 44.10 nmol/min/mg | Specific activity (cell-free indophenol urease assay) ([6]; AMA 0.015625 mM): 40.68 nmol/min/mg and 41.88 nmol/min/mg | Specific activity (cell-free indophenol urease assay) ([6]; AMA 0.03125 mM): 40.85 nmol/min/mg and 42.39 nmol/min/mg | Specific activity (cell-free indophenol urease assay) ([6]; AMA 0.0625 mM): 40.85 nmol/min/mg | Specific activity (cell-free indophenol urease assay) ([6]; AMA 0.125 mM): 39.49 nmol/min/mg and 40.51 nmol/min/mg | Specific activity (cell-free indophenol urease assay) ([6]; AMA 0.25 mM): 37.95 nmol/min/mg and 38.29 nmol/min/mg | Specific activity (cell-free indophenol urease assay) ([6]; AMA 0.5 mM): 35.56 nmol/min/mg and 36.75 nmol/min/mg | Specific activity (cell-free indophenol urease assay) ([6]; AMA 1 mM): 35.04 nmol/min/mg and 35.73 nmol/min/mg | direct inhibition of urease ([6]; cell-free extract): excluded the direct inhibition of urease | cytotoxicity toward HEK293 ([7]; 48 h, up to 512 μg/mL (~1.4 mM)): no significant cytotoxicity | IC50 (HEK293 viability) ([7]; 48 h, highest tested 512 µg/mL (MG-132 62.5 µg/mL), Zn and Ni values of low confidence): Does no t fit to the mo del | HEK 293T cytotoxicity assay raw signal ([7]; AMA 0.5 μg/mL): 625667 and 666020 and 709951 | HEK 293T cytotoxicity assay raw signal ([7]; AMA 1 μg/mL): 642619 and 585959 and 657816 | HEK 293T cytotoxicity assay raw signal ([7]; AMA 2 μg/mL): 663671 and 698910 and 700863 | HEK 293T cytotoxicity assay raw signal ([7]; AMA 4 μg/mL): 595054 and 606045 and 670753 | HEK 293T cytotoxicity assay raw signal ([7]; AMA 8 μg/mL): 579865 and 576275 and 764893 | HEK 293T cytotoxicity assay raw signal ([7]; AMA 16 μg/mL): 628738 and 611425 and 704710 | HEK 293T cytotoxicity assay raw signal ([7]; AMA 32 μg/mL): 627377 and 612979 and 683402 | HEK 293T cytotoxicity assay raw signal ([7]; AMA 64 μg/mL): 591894 and 576108 and 744283 | HEK 293T cytotoxicity assay raw signal ([7]; AMA 128 μg/mL): 558480 and 565965 and 608380 | HEK 293T cytotoxicity assay raw signal ([7]; AMA 256 μg/mL): 567074 and 538238 and 648309 | HEK 293T cytotoxicity assay raw signal ([7]; AMA 512 μg/mL): 571681 and 577586 and 600345
